Results published in ChEMBL document CHEMBL1128309, “Antitumor activity of 9(R)-dihydrotaxane analogs” (1995).

Columns and labels:
Format in all cases: functional
[1] = ED50 compared to that of taxol.
A549 = experiment: Cytotoxicity against human lung carcinoma A549 cell line
B16-F10 = experiment: Cytotoxicity against mouse melanoma B16F10 cell line
P388 = experiment: Cytotoxicity against mouse lymphocytic leukemia P388 cell line
HT-29 = experiment: Cytotoxicity against human colon adenocarcinoma HT-29 cell line

Compound	Ratio [1]	Cytotoxicity (A549) [ng/mL]	Cytotoxicity (B16-F10) [ng/mL]	Cytotoxicity (P388) [ng/mL]	Cytotoxicity (HT-29) [ng/mL]
CO[C@H]1C[C@H]2OC[C@@]2(OC(C)=O)[C@H]2[C@H](OC(=O)c3ccccc3)[C@]3(O)C[C@H](OC(=O)[C@H](O)[C@@H](NC(=O)OC(C)(C)C)c4ccccc4)C(C)=C([C@@H](OC(C)=O)[C@H](O)[C@]12C)C3(C)C	0.35	0.27	0.2	0.6	0.15
C=CCO[C@H]1C[C@H]2OC[C@@]2(OC(C)=O)[C@H]2[C@H](OC(=O)c3ccccc3)[C@]3(O)C[C@H](OC(=O)[C@H](O)[C@@H](NC(=O)c4ccccc4)c4ccccc4)C(C)=C([C@@H](OC(C)=O)[C@H](O)[C@]12C)C3(C)C	1.4	1	2.7	5.3	1.2
CC(=O)O[C@@H]1C2=C(C)[C@@H](OC(=O)[C@H](O)[C@@H](NC(=O)c3ccccc3)c3ccccc3)C[C@@](O)([C@@H](OC(=O)c3ccccc3)[C@@H]3[C@]4(OC(C)=O)CO[C@@H]4C[C@@H]4OC(=S)O[C@@H]1[C@]43C)C2(C)C	2.78	19	20	35	11
CC(=O)O[C@@H]1C2=C(C)[C@@H](OC(=O)[C@H](O)[C@@H](NC(=O)c3ccccc3)c3ccccc3)C[C@@](O)([C@@H](OC(=O)c3ccccc3)[C@@H]3[C@]4(OC(C)=O)CO[C@@H]4C[C@H](O)[C@@]3(C)[C@H]1O)C2(C)C (stereo in doubt; 2) [listing 1 of 2 here]	0.75				
CO[C@H]1C[C@H]2OC[C@@]2(OC(C)=O)[C@H]2[C@H](OC(=O)c3ccccc3)[C@]3(O)C[C@H](OC(=O)[C@H](O)[C@@H](NC(=O)c4ccccc4)c4ccccc4)C(C)=C([C@@H](OC(C)=O)[C@H](O)[C@]12C)C3(C)C	0.92	1.2	1.5	3.9	1.4
CC(=O)OCCO[C@H]1C[C@H]2OC[C@@]2(OC(C)=O)[C@H]2[C@H](OC(=O)c3ccccc3)[C@]3(O)C[C@H](OC(=O)[C@H](O)[C@@H](NC(=O)c4ccccc4)c4ccccc4)C(C)=C([C@@H](OC(C)=O)[C@H](O)[C@]12C)C3(C)C	2.47	120	43	79	31
CCC1O[C@H]2C[C@H]3OC[C@@]3(OC(C)=O)[C@H]3[C@H](OC(=O)c4ccccc4)[C@]4(O)C[C@H](OC(=O)[C@H](O)[C@@H](NC(=O)c5ccccc5)c5ccccc5)C(C)=C([C@@H](OC(C)=O)[C@H](O1)[C@]23C)C4(C)C (some centres undefined)		23	15	22	16
CO[C@H]1[C@H](OC(C)=O)C2=C(C)[C@@H](OC(=O)[C@H](O)[C@@H](NC(=O)OC(C)(C)C)c3ccccc3)C[C@@](O)([C@@H](OC(=O)c3ccccc3)[C@@H]3[C@]4(OC(C)=O)CO[C@@H]4C[C@H](O)[C@]31C)C2(C)C	0.51	0.1	0.9	1.3	0.5
CO[C@H]1[C@H](OC(C)=O)C2=C(C)[C@@H](OC(=O)[C@H](O)[C@@H](NC(=O)c3ccccc3)c3ccccc3)C[C@@](O)([C@@H](OC(=O)c3ccccc3)[C@@H]3[C@]4(OC(C)=O)CO[C@@H]4C[C@H](O)[C@]31C)C2(C)C	1.74	4.7	4.8	7.8	3.1
CCN(CC)CCO[C@H]1C[C@H]2OC[C@@]2(OC(C)=O)[C@H]2[C@H](OC(=O)c3ccccc3)[C@]3(O)C[C@H](OC(=O)[C@H](O)[C@@H](NC(=O)c4ccccc4)c4ccccc4)C(C)=C([C@@H](OC(C)=O)[C@H](O)[C@]12C)C3(C)C	2.61	400	110	310	108
CC(=O)O[C@@H]1C2=C(C)[C@@H](OC(=O)[C@H](O)[C@@H](NC(=O)c3ccccc3)c3ccccc3)C[C@@](O)([C@@H](OC(=O)c3ccccc3)[C@@H]3[C@]4(O)CO[C@@H]4C[C@H](O)[C@@]3(C)[C@H]1O)C2(C)C	> 10	>1000	>1000	>1000	>1000
CC(=O)O[C@H]1C(=O)[C@@]2(C)[C@H]([C@H](OC(=O)c3ccccc3)[C@]3(O)C[C@H](OC(=O)[C@H](O)[C@@H](NC(=O)c4ccccc4)c4ccccc4)C(C)=C1C3(C)C)[C@]1(OC(C)=O)CO[C@@H]1C[C@@H]2O [PACLITAXEL]	1	4.3	6.3	11	3.5
CC(=O)O[C@@H]1C2=C(C)[C@@H](OC(=O)[C@H](O)[C@@H](NC(=O)c3ccccc3)c3ccccc3)C[C@@](O)([C@@H](OC(=O)c3ccccc3)[C@@H]3[C@]4(OC(C)=O)CO[C@@H]4C[C@H](O)[C@@]3(C)[C@H]1O)C2(C)C (stereo in doubt; 14a) [listing 1 of 2 here]		11	39	140	1.9
CC(=O)O[C@@H]1C2=C(C)[C@@H](OC(=O)[C@H](O)[C@@H](NC(=O)c3ccccc3)c3ccccc3)C[C@@](O)([C@@H](OC(=O)c3ccccc3)[C@@H]3[C@]4(OC(C)=O)CO[C@@H]4C[C@H](O)[C@@]3(C)[C@H]1O)C2(C)C (stereo in doubt; 14a) [listing 2 of 2 here]	0.83				
CC(=O)O[C@@H]1C2=C(C)[C@@H](OC(=O)[C@H](O)[C@@H](NC(=O)c3ccccc3)c3ccccc3)C[C@@](O)([C@@H](OC(=O)c3ccccc3)[C@@H]3[C@]4(OC(C)=O)CO[C@@H]4C[C@H](OC(C)=O)[C@@]3(C)[C@H]1OC(C)=O)C2(C)C	0.91	15	13	22	3.3
CC(=O)O[C@@H]1C2=C(C)[C@@H](OC(=O)[C@H](O)[C@@H](NC(=O)c3ccccc3)c3ccccc3)C[C@@](O)([C@@H](OC(=O)c3ccccc3)[C@@H]3[C@]4(OC(C)=O)CO[C@@H]4C[C@H](OCC(O)CO)[C@@]3(C)[C@H]1O)C2(C)C (some centres undefined)	2.02	626	>1000	>1000	310
CC(=O)O[C@@H]1C2=C(C)[C@@H](OC(=O)[C@H](O)[C@@H](NC(=O)c3ccccc3)c3ccccc3)C[C@@](O)([C@@H](OC(=O)c3ccccc3)[C@@H]3[C@]4(OC(C)=O)CO[C@@H]4C[C@H](O)[C@@]3(C)[C@H]1O)C2(C)C (stereo in doubt; 2) [listing 2 of 2 here]		22	25	57	9.6
CC(=O)O[C@@H]1C2=C(C)[C@@H](OC(=O)[C@H](O)[C@@H](NC(=O)c3ccccc3)c3ccccc3)C[C@@](O)([C@@H](OC(=O)c3ccccc3)[C@@H]3[C@]4(OC(C)=O)CO[C@@H]4C[C@@H]4OC(C)(C)O[C@@H]1[C@]43C)C2(C)C	0.76	34	34	42	29
CC(=O)O[C@@]12CO[C@@H]1C[C@H](O)[C@]1(C)[C@@H]2[C@H](OC(=O)c2ccccc2)[C@]2(O)C[C@H](OC(=O)[C@H](O)[C@@H](NC(=O)OC(C)(C)C)c3ccccc3)C(C)=C([C@@H](O)[C@@H]1O)C2(C)C	1.31	0.26	0.4	2.8	0.65
CC(=O)O[C@@H]1C2=C(C)[C@@H](OC(=O)[C@H](O)[C@@H](NC(=O)c3ccccc3)c3ccccc3)C[C@@](O)([C@@H](OC(=O)c3ccccc3)[C@@H]3[C@]4(OC(C)=O)CO[C@@H]4C[C@H](OCCO)[C@@]3(C)[C@H]1O)C2(C)C	1.77	39	119	170	10
